Results: US7951548B2, “IL-13 production inhibitor” (Takeda Pharmaceutical Company Limited, priority 2005, dated 2011)

Assays:
Type in all cases: cell-based
[1] = system: other receptor expression cells; assay: cAMP production inhibitory activity on other receptor expression cells
GPR34 [2] = target: T1, GPR34 (Homo sapiens, UniProt Q9UPC5); assay: Intracellular cAMP production inhibitory activity on GPR34-expressed CHO cells (forskolin stimulated); conditions: phosphatidylserine in a higher concentration
T1 construct: expressed in transfected cells
Experimental: The GPR34-expressed CHO cells prepared in (1-2) described above and selected in (1-3) described above were plated on a 24-well plate in 6×10^4 cells/well followed by incubation for 48 hours. The cells were washed with αMEM medium (pH 7.5) containing 0.2 mM 3-isobutylmethylxanthine, 0.05% BSA and 20 mM HEPES (hereinafter αMEM medium (pH 7.5) containing 0.2 mM 3-isobutylmethylxanthine, 0.05% BSA and 20 mM HEPES is referred to as the reaction buffer). Thereafter, 0.5 mL of the reaction buffer was added and the mixture was kept warm for 30 minutes in an incubator. The reaction buffer was removed and 0.25 mL of fresh reaction buffer was replenished to the cells. Then, 0.25 mL of the reaction buffer containing a sample and 2 μM forskolin was added to the cells, followed by reacting at 37° C. for 30 minutes. The reaction solution was removed and 0.5 mL of the cell lysis solution attached to cAMP EIA kit (Applied Biosystems) to extract cAMP in the cells. The cAMP level in the extract was quantified using the same kit. Based on this measurement data, the cAMP production inhibitory activity was calculated based on the equation shown below and expressed in terms of percentage to the control group. […]

[3] = system: rat peritoneal mast cells; assay: MAPK activation: phosphorylation of ERK1/2 in rat peritoneal mast cells (RPMC); conditions: PTX 0.1 μg/mL, 4 hours before assay
Experimental: Pertussis toxin (hereinafter PTX) was added to the cells in a final concentration of 0.1 μg/mL 4 hours before assay. RPMC was washed in ice-chilled assay buffer (Tyrode Buffer, 0.01% fatty acid free-BSA (SIGMA), 1 mM CaCl2, 1 mM MgCl2), and suspended in 2×10^6 cells/ml. The suspension was dispensed in a 1.5 mL tube followed by preincubation for 15 minutes at 37° C. The lysoPS solution was added thereto in an equimolar amount. After incubation at 37° C., the reaction was terminated by quenching. The cells were precipitated by centrifugation and the assay buffer was aspirated. After washing in PBS, 1×SDS sample buffer/DTT was added to the cells to lyse the cells. After ultrasonication for 15 seconds, heating at 95° C. for 5 minutes was followed by quenching.
(§1) Detection by SDS-PAGE and western blotting were performed as follows. After separation using 10% Bis-Tris gel (Invitrogen), the gel was transferred to Immuno-Blot PVDF Membrane (BIO-RAD). The membrane was blocked with Block Ace (Dai-Nippon Pharmaceutical) and incubated at 4° C. overnight with a primary antibody (Phospho-p42/p44 MAP Kinase (Thr202/Thr204) Antibody (CST) or p42/p44 MAP Kinase Antibody (CST)) and further incubated at room temperature for an hour with a secondary antibody (Anti-rabbit IgG (CST)). The membrane after the antibody reaction was visualized by chemiluminescence using ECL PLUS (Amersham Biosciences). […]

GPR34 [4] = target: T1, GPR34; assay: MAPK activation: phosphorylation of ERK1/2 in human GPR34-expressed CHO cells (western blotting); conditions: PTX 0.1 μg/mL, 20 hours before the assay
Experimental: The cells were prepared as described below. Human GPR34-expressed CHO cells were scraped off with 0.05% trypsin-EDTA (GIBCO) and suspended in a medium (MEM-α (GIBCO), supplemented with 10% FBS (GIBCO) and penicillin/streptomycin (BIOWHITTAKER)). After centrifugation, the cells precipitated were suspended in the medium in 2×10^5 cells/ml and a 1 mL aliquot was plated on a 35 mm cell culture dish. After incubation overnight in a CO2 incubator, the medium was aspirated and washed in PBS. Then 1 mL of serum-free medium (MEM-α (GIBCO), supplemented with penicillin/streptomycin (BIOWHITTAKER)) and incubation was performed in a CO2 incubator. Pertussis toxin (hereinafter PTX) was added in a final concentration of 0.1 μg/mL 20 hours before the assay.
The cells were activated as follows. The medium was aspirated and washed in PBS. Thereafter, 500 μL of assay buffer (HBSS (GIBCO), 10 mM HEPES (Dojin Chemical Laboratory)) was added to perform preincubation for 15 minutes at 37° C. The lysoPS solution and […] of PECGF ([…] cell growth factor) solution as a positive control were added. After the mixture was incubated at 37° C., the reaction was terminated by quenching. The assay buffer was aspirated and washed in PBS. Then, 1×SDS sample buffer/DTT was added to the cells to recover the cells. After ultrasonication for 15 seconds, heating at 95° C. for 5 minutes was followed by quenching.
as §1, with “Membrane (Bio-Rad).” for “Membrane (BIO-RAD).”, “at room temperature for an hour” for “at 4° C. overnight”, “hour using” for “hour with”

[5] = system: mouse bone marrow-derived mast cells; assay: MAPK activation: phosphorylation of ERK1/2 in mouse bone marrow-derived mast cells (BMMC); conditions: PTX 0.1 μg/mL, 4 hours before assay
Experimental: BMMC was established by collecting bone marrow fluid from the femur of male BALB/c mouse (Japan SLC), rinsing in RPMI1640 (Nikken Bio Medical Laboratory) and then incubating in a medium (RPMI1640, 50% WEHI-3 culture supernatant, 10% FBS (GIBCO), penicillin/streptomycin (BIOWHITTAKER), Non-Essential amino acids (GIBCO)) for 4 weeks. The cells were incubated in a CO2 incubator immediately before assay. Pertussis toxin (hereinafter PTX) was added to the cells in a final concentration of 0.1 μg/mL 4 hours before assay. BMMC was washed in ice-chilled assay buffer (Tyrode Buffer, 0.01% fatty acid free-BSA (SIGMA), 1 mM CaCl2, 1 mM MgCl2), and suspended in 2×10^6 cells/ml. The suspension was dispensed in a 1.5 mL tube followed by preincubation for 15 minutes at 37° C. The lysoPS solution and A23187 solution (Wako Pure Chemicals) as a positive control were added in equimolar amounts. After incubation at 37° C., the reaction was terminated by quenching. The cells were precipitated by centrifugation and the assay buffer was aspirated. After washing in PBS, 1×SDS sample buffer/DTT was added to the cells to lyse the cells. After ultrasonication for 15 seconds, the sample was heated at 95° C. for 5 minutes followed by quenching.
Detection by SDS-PAGE and western blotting were performed as follows. After separation using 10% Bis-Tris gel (Invitrogen), the gel was transferred to Immuno-Blot PVDF Membrane (BIO-RAD). The membrane was blocked with Block Ace (Dai-Nippon Pharmaceutical) and incubated at 4° C. overnight with a primary antibody (Phospho-p42/p44 MAP Kinase (Thr202/Thr204) Antibody (CST) or p42/p44 MAP Kinase Antibody (CST)) and further incubated at room temperature for an hour using a secondary antibody (Anti-rabbit IgG (CST)). The membrane after the antibody reaction was visualized by chemiluminescence using ECL PLUS (Amersham Biosciences). Detection and image analysis were performed using LAS1000 (FUJI FILM).

T1 sequence (Q9UPC5 whole entry): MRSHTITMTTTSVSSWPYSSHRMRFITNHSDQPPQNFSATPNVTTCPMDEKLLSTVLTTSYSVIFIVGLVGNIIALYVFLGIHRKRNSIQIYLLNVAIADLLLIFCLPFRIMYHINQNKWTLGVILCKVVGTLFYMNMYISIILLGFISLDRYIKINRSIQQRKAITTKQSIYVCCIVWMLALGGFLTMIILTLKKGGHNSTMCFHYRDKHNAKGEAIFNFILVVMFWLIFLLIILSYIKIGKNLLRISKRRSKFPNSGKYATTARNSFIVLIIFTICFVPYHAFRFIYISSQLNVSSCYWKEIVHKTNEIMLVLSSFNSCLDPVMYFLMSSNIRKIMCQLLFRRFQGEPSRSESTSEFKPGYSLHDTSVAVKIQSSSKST

Row | Substance | cAMP production inhibitory action on other receptor expression cells [1] | cAMP production inhibitory activity (GPR34 [2]) | effect of PTX pretreatment on phosphorylation of ERK1/2 by lysoPS [3] | effect of PTX pretreatment on phosphorylation of ERK1/2 by lysoPS (GPR34 [4]) | effect of PTX pretreatment on phosphorylation of ERK1/2 by lysoPS [5]
1 | phosphatidylserine | not noted | marked activities |  |  | 
2 | Pertussis toxin [PTX] |  |  | attenuated to the level below the detection limit | attenuated to the level below the detection limit | attenuated to the level below the detection limit
